Laboratory results from ChEMBL document CHEMBL1201862, “PubChem BioAssay data set” (2004).
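Briefly, cells in 96-well plates were exposed to five compound concentrations for 48 h, and endpoints were estimated by linear interpolation. Abbreviation: GI50, concentration required for 50% inhibition of growth.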 Active and inactive are the calls of the source. Rule as the data show it: active = GI50 up to about 1.1 µM and inactive = higher.

How the values were obtained:
Assay in all cases: DTP human tumour cell line panel, 48 h
UACC-62 = test system: UACC-62
SNB-78 = test system: SNB-78
NCI-H522 = test system: NCI-H522
HOP-92 = test system: HOP-92
K562 = test system: K562
NCI-H226 = test system: NCI-H226
HL-60 = test system: HL-60
A498 = test system: A498
CCRF-CEM = test system: CCRF-CEM
SR = test system: SR
HOP-62 = test system: HOP-62
TK-10 = test system: TK-10
EKVX = test system: EKVX
SK-OV-3 = test system: SK-OV-3
SF-268 = test system: SF-268
A549 = test system: A549
U-251 = test system: U-251
KM12 = test system: KM12
SNB-19 = test system: SNB-19
HT-29 = test system: HT-29
IGROV-1 = test system: IGROV-1
RXF 393 = test system: RXF 393
M19-MEL = test system: M19-MEL
OVCAR-5 = test system: OVCAR-5
NCI-H23 = test system: NCI-H23
M14 = test system: M14
DMS-273 = test system: DMS-273
UO-31 = test system: UO-31
NCI-H460 = test system: NCI-H460
SK-MEL-28 = test system: SK-MEL-28
MOLT-4 = test system: MOLT-4
Malme-3M = test system: Malme-3M
LOX IMVI = test system: LOX IMVI
SK-MEL-2 = test system: SK-MEL-2
HCC 2998 = test system: HCC 2998
Hs-578T = test system: Hs-578T
OVCAR-4 = test system: OVCAR-4
T47D = test system: T47D
RPMI-8226 = test system: RPMI-8226
786-0 = test system: 786-0
SN12C = test system: SN12C
COLO 205 = test system: COLO 205
UACC-257 = test system: UACC-257
OVCAR-8 = test system: OVCAR-8
NCI/ADR-RES = test system: NCI/ADR-RES
MDA-N = test system: MDA-N
SK-MEL-5 = test system: SK-MEL-5
OVCAR-3 = test system: OVCAR-3
MDA-MB-231 = test system: MDA-MB-231
SF-295 = test system: SF-295
ACHN = test system: ACHN
HCT-15 = test system: HCT-15
CAKI-1 = test system: CAKI-1
DU-145 = test system: DU-145
PC-3 = test system: PC-3
SF-539 = test system: SF-539
HCT-116 = test system: HCT-116
SNB-75 = test system: SNB-75
MDA-MB-435 = test system: MDA-MB-435
BT-549 = test system: BT-549
MCF7 = test system: MCF7
SW-620 = test system: SW-620

N#CC1Sc2ccccc2-n2cccc21 (stereo not given)
GI50 (UACC-62): 30.3 µM (inactive)
GI50 (SNB-78): 34.7 µM (inactive)
GI50 (NCI-H522): 36.1 µM (inactive)
GI50 (HOP-92): 42.6 µM (inactive)
GI50 (K562): 26.7 µM (inactive)
GI50 (NCI-H226): 4.98 µM (inactive)
GI50 (HL-60): 22.8 µM (inactive)
GI50 (A498): 67.6 µM (inactive)
GI50 (CCRF-CEM): 70.8 µM (inactive)
GI50 (SR): 37.6 µM (inactive)
GI50 (HOP-62): > 100 µM (inactive)
GI50 (TK-10): 80 µM (inactive)
GI50 (EKVX): 61.2 µM (inactive)
GI50 (SK-OV-3): 67.3 µM (inactive)
GI50 (SF-268): 25.1 µM (inactive)
GI50 (A549): 45 µM (inactive)
GI50 (U-251): > 100 µM (inactive)
GI50 (KM12): 85.7 µM (inactive)
GI50 (SNB-19): > 100 µM (inactive)
GI50 (HT-29): > 100 µM (inactive)
GI50 (IGROV-1): > 100 µM (inactive)
GI50 (RXF 393): 23.2 µM (inactive)
GI50 (M19-MEL): > 100 µM (inactive)
GI50 (OVCAR-5): 24.3 µM (inactive)
GI50 (NCI-H23): 63.7 µM (inactive)
GI50 (M14): > 100 µM (inactive)
GI50 (DMS-273): 44 µM (inactive)
GI50 (UO-31): 25.4 µM (inactive)
GI50 (NCI-H460): > 100 µM (inactive)
GI50 (SK-MEL-28): > 100 µM (inactive)
GI50 (MOLT-4): 58.9 µM (inactive)

C(#CC1(Nc2ccccc2)CCN(Cc2ccccc2)CC1)C1(Nc2ccccc2)CCN(Cc2ccccc2)CC1
GI50 (Malme-3M): 3.17 µM (inactive)
GI50 (UACC-62): 13.2 µM (inactive)
GI50 (LOX IMVI): 5.14 µM (inactive)
GI50 (SK-MEL-2): 10.5 µM (inactive)
GI50 (NCI-H522): 24.8 µM (inactive)
GI50 (HOP-92): 4.95 µM (inactive)
GI50 (HCC 2998): 818 nM (active)
GI50 (Hs-578T): 10 µM (inactive)
GI50 (OVCAR-4): 19.3 µM (inactive)
GI50 (K562): 1.62 µM (inactive)
GI50 (NCI-H226): 26.7 µM (inactive)
GI50 (T47D): 9.31 µM (inactive)
GI50 (HL-60): 1.56 µM (inactive)
GI50 (RPMI-8226): 1.18 µM (inactive)
GI50 (786-0): 17.3 µM (inactive)
GI50 (A498): 30.1 µM (inactive)
GI50 (SN12C): 24.2 µM (inactive)
GI50 (COLO 205): 1.31 µM (inactive)
GI50 (CCRF-CEM): 6.27 µM (inactive)
GI50 (UACC-257): 2.08 µM (inactive)
GI50 (OVCAR-8): 21.6 µM (inactive)
GI50 (NCI/ADR-RES): 34.7 µM (inactive)
GI50 (SR): 3.15 µM (inactive)
GI50 (MDA-N): 14.5 µM (inactive)
GI50 (HOP-62): 16.7 µM (inactive)
GI50 (TK-10): 13.2 µM (inactive)
GI50 (EKVX): 40.6 µM (inactive)
GI50 (SK-OV-3): 5.01 µM (inactive)
GI50 (SK-MEL-5): 3.88 µM (inactive)
GI50 (SF-268): 29.1 µM (inactive)
GI50 (OVCAR-3): 37.8 µM (inactive)
GI50 (A549): 23.6 µM (inactive)
GI50 (MDA-MB-231): 16.3 µM (inactive)
GI50 (U-251): 19.9 µM (inactive)
GI50 (KM12): 35.3 µM (inactive)
GI50 (SF-295): 22.3 µM (inactive)
GI50 (SNB-19): 23.8 µM (inactive)
GI50 (ACHN): 39.4 µM (inactive)
GI50 (HT-29): 4.72 µM (inactive)
GI50 (HCT-15): 22.2 µM
GI50 (IGROV-1): 22.9 µM (inactive)
GI50 (CAKI-1): 24.3 µM (inactive)
GI50 (DU-145): 46.9 µM (inactive)
GI50 (RXF 393): 12.5 µM (inactive)
GI50 (PC-3): 15.1 µM (inactive)
GI50 (OVCAR-5): 53.3 µM (inactive)
GI50 (SF-539): 5.5 µM (inactive)
GI50 (HCT-116): 19.4 µM (inactive)
GI50 (SNB-75): 10 µM (inactive)
GI50 (MDA-MB-435): 25.8 µM (inactive)
GI50 (NCI-H23): 37.8 µM (inactive)
GI50 (M14): 11.2 µM (inactive)
GI50 (UO-31): 15.5 µM (inactive)
GI50 (BT-549): 34.6 µM (inactive)
GI50 (NCI-H460): 16.3 µM (inactive)
GI50 (SK-MEL-28): 4.8 µM (inactive)
GI50 (MOLT-4): 4.17 µM (inactive)
GI50 (MCF7): 31.5 µM (inactive)
GI50 (SW-620): 11.2 µM (inactive)
